The results in this text go back to patent US9751869B2, “LXR modulators” (BRISTOL-MYERS SQUIBB COMPANY, priority 2013, dated 2017).

In the assay the target is T1, LXRβ (Homo sapiens, UniProt P55055).
T1 construct: Co-transfection expression plasmids, comprising full-length LXRα (pCMX-h LXRα or LXRβ (pCMX-hLXRβ)); expressed in transfected cells; host or cells: CV-1 African green monkey kidney cells, transient transfection with pCMX-hLXRβ
T1 sequence (P55055 1-460): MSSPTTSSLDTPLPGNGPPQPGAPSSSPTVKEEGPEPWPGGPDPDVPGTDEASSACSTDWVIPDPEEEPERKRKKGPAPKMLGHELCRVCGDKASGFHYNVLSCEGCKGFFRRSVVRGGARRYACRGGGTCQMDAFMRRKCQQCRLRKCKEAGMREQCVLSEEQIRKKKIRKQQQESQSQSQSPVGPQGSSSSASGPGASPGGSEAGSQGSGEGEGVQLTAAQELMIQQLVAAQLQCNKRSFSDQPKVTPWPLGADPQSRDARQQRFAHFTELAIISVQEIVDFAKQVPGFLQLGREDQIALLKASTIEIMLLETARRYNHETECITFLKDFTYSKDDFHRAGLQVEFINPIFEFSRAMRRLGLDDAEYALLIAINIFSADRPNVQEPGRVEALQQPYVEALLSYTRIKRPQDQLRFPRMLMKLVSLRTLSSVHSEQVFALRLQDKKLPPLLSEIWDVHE
T1 sequence (P19793 1-462 partner): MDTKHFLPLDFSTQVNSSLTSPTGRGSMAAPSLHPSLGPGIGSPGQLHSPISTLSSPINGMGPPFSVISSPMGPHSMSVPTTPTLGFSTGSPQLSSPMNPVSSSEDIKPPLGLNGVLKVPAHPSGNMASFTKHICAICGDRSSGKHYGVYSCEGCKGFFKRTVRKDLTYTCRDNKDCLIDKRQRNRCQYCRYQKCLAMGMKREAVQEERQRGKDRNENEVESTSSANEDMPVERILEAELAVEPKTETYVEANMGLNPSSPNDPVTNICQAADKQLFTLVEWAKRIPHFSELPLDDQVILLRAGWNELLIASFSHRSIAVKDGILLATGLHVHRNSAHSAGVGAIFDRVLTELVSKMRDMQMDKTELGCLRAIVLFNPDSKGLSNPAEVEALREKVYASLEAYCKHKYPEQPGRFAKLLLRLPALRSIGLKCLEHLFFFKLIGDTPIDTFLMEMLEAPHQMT
The assay can be described thus: LXR/LXRE co-transfection assay (luciferase reporter) in CV-1 cells, LXRβ. The format is cell-based. To be noted: for EC50: CV-1 cells transfected with pCMX-hLXRβ and LXREx1-Tk-Luciferase, 20 hours incubation, read-out: LXRbeta agonism EC50; for Emax / LXRbeta % EFFICACY: CV-1 cells, relative to maximum response of high control N-(3-((4-fluorophenyl)-(naphthalene-2-sulfonyl)amino)propyl)-2,2-dimethylpropionamide; for Emax: read-out: LXRbeta % EFFICACY
The method in brief: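 CV-1 cells transiently co-transfected with full-length human LXRβ, LXRE-Tk-luciferase reporter and β-galactosidase control, then exposed to compound (≤0.5% DMSO) for 20 h at 37 °C before luminescence read. EC50 from 10-point, half-log dose curves; efficacy relative to the sulfonamide high control, means of 2–3 experiments.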
In general terms: A reporter such as luciferase makes a cellular process visible.

SMILES strings stand for the structures.

As to `Cc1nc(-c2ccc3c(c2)OC(F)(F)O3)c(-c2cc(-c3cccc(S(C)(=O)=O)c3)ccc2-c2cc(C#N)nn2C)o1` [Example 123, 5-(3-(4-(2,2-difluorobenzo[d][1,3]dioxol-5-yl)-2-methyloxazol-5-yl)-3′-(methylsulfonyl)-[1,1′-biphenyl]-4-yl)-1-methyl-1H-pyrazole-3-carbonitrile], the half-maximal effective concentration (EC50) (usually the concentration needed to bring the measured effect to its halfway point) is 94 nM and the Emax is 35%.

With `Cc1nc(-c2ccc(OC(F)(F)F)cc2)c(-c2cc(-c3cccc(S(C)(=O)=O)c3)ccc2-c2cc(C(=O)NCC(C)(C)O)nn2C)o1` [Example 124], the 50% effective concentration (EC50) is 769 nM and the Emax was 24%.

With `Cc1nc(-c2ccc(OC(F)(F)F)cc2)c(-c2cc(-c3cc(Cl)c(CO)c(S(C)(=O)=O)c3)ccc2-c2cc(C(F)(F)F)nn2C)o1` [Example 125, (3-chloro-4′-(1-methyl-3-(trifluoromethyl)-1H-pyrazol-5-yl)-3′-(2-methyl-4-(4-(trifluoromethoxy)phenyl)oxazol-5-yl)-5-(methylsulfonyl)-[1,1′-biphenyl]-4-yl)methanol], the concentration for a half-maximal effect (EC50) was found to be 179 nM and the Emax was found to be 88%.

For the molecule `Cc1nc(-c2ccc(OC(F)(F)F)cc2)c(-c2cc(-c3cccc(S(N)(=O)=O)c3)ccc2-c2cc(C(F)(F)F)nn2C)o1` [Example 126, 4′-(1-methyl-3-(trifluoromethyl)-1H-pyrazol-5-yl)-3′-(2-methyl-4-(4-(trifluoromethoxy)phenyl)oxazol-5-yl)-[1,1′-biphenyl]-3-sulfonamide], the EC50 amounted to 299 nM and the Emax worked out at 85%.

For the molecule `CNS(=O)(=O)c1cccc(-c2ccc(-c3cc(C(F)(F)F)nn3C)c(-c3oc(C)nc3-c3ccc(OC(F)(F)F)cc3)c2)c1` [Example 127, N-methyl-4′-(1-methyl-3-(trifluoromethyl)-1H-pyrazol-5-yl)-3′-(2-methyl-4-(4-(trifluoromethoxy)phenyl)oxazol-5-yl)-[1,1′-biphenyl]-3-sulfonamide], the 50% effective concentration (EC50) came to 59 nM and the Emax was found to be 99%.

With `Cc1nc(-c2ccc(OC(F)(F)F)cc2)c(-c2cc(-c3cccc(S(C)(=O)=O)c3)ccc2-c2cc(C(F)(F)C(N)=O)nn2C)o1` [Example 128], the concentration giving a half-maximal response (EC50) was 159 nM and the Emax worked out at 44%.

For the molecule `Cc1nc(-c2ccc3c(c2)OC(F)(F)O3)c(-c2cc(-c3cccc(S(C)(=O)=O)c3)ccc2-c2cc(C(C)OC(N)=O)nn2C)o1` (stereo not drawn) [Example 129, 1-(5-(3-(4-(2,2-difluorobenzo[d][1,3]dioxol-5-yl)-2-methyloxazol-5-yl)-3′-(methylsulfonyl)-[1,1′-biphenyl]-4-yl)-1-methyl-1H-pyrazol-3-yl)ethyl carbamate], the EC50 was found to be 87 nM and the Emax stood at 48%.

With `Cc1nc(-c2ccc3c(c2)OC(F)(F)O3)c(-c2cc(-c3cccc(S(C)(=O)=O)c3)ccc2-c2cc(C(C)OC(N)=O)nn2C)o1` (stereo not drawn) [Example 130, 1-(5-(3-(4-(2,2-difluorobenzo[d][1,3]dioxol-5-yl)-2-methyloxazol-5-yl)-3′-(methylsulfonyl)-[1,1′-biphenyl]-4-yl)-1-methyl-1H-pyrazol-3-yl)ethyl carbamate], the 50% effective concentration (EC50) was 113 nM and the “LXRbeta % EFFICACY” value is listed as 56%.

With `Cc1nc(-c2ccc3c(c2)OC(F)(F)O3)c(-c2cc(-c3cc(F)c(CO)c(S(C)(=O)=O)c3)ccc2-c2cc(C(C)OC(N)=O)nn2C)o1` (stereo not drawn) [Example 131, 1-(5-(3-(4-(2,2-difluorobenzo[d][1,3]dioxol-5-yl)-2-methyloxazol-5-yl)-3′-fluoro-4′-(hydroxymethyl)-5′-(methylsulfonyl)-[1,1′-biphenyl]-4-yl)-1-methyl-1H-pyrazol-3-yl)ethyl carbamate], the concentration giving a half-maximal response (EC50) stood at 178 nM and the Emax amounted to 47%.

As to `Cc1nc(-c2ccc3c(c2)OC(F)(F)O3)c(-c2cc(-c3cc(F)c(CO)c(S(C)(=O)=O)c3)ccc2-c2cc(C(C)OC(N)=O)nn2C)o1` (stereo not drawn) [Example 132, 1-(5-(3-(4-(2,2-difluorobenzo[d][1,3]dioxol-5-yl)-2-methyloxazol-5-yl)-3′-fluoro-4′-(hydroxymethyl)-5′-(methylsulfonyl)-[1,1′-biphenyl]-4-yl)-1-methyl-1H-pyrazol-3-yl)ethyl carbamate], the EC50 is 157 nM and the “LXRbeta % EFFICACY” value is given as 49%.

As to `CC(=O)c1cc(-c2ccc(-c3cc(F)c(CO)c(S(C)(=O)=O)c3)cc2-c2oc(C)nc2-c2ccc3c(c2)OC(F)(F)O3)n(C)n1` [Example 133, 1-(5-(3-(4-(2,2-difluorobenzo[d][1,3]dioxol-5-yl)-2-methyloxazol-5-yl)-3′-fluoro-4′-(hydroxymethyl)-5′-(methylsulfonyl)-[1,1′-biphenyl]-4-yl)-1-methyl-1H-pyrazol-3-yl)ethanone], the EC50 was found to be 12 nM and the Emax stood at 66%.

Turning to `Cc1cc(C(F)(F)F)nn1-c1ccc(-c2cccc(S(C)(=O)=O)c2)cc1-n1nncc1-c1ccc(OC(F)(F)F)cc1` [Example 300, 1-{3′-(methylsulfonyl)-4-[5-methyl-3-(trifluoromethyl)-1H-pyrazol-1-yl]biphenyl-3-yl}-5-{4-[(trifluoromethyl)oxy]phenyl}-1H-1,2,3-triazole], the half-maximal effective concentration (EC50) was 153 nM and the Emax stood at 99%.

For `Cc1cc(C(F)(F)F)nn1-c1ccc(-c2cc(F)c(CO)c(S(C)(=O)=O)c2)cc1-n1nncc1-c1ccc(OC(F)(F)F)cc1` [Example 301, [3-fluoro-5-(methylsulfonyl)-4′-[5-methyl-3-(trifluoromethyl)-1H-pyrazol-1-yl]-3′-(5-{4-[(trifluoromethyl)oxy]phenyl}-1H-1,2,3-triazol-1-yl)biphenyl-4-yl]methanol], the half-maximal effective concentration (EC50) was found to be 32 nM and the Emax was found to be 101%.

As for `Cc1cc(C(F)(F)F)nn1-c1ccc(-c2cc(Cl)c(CO)c(S(C)(=O)=O)c2)cc1-n1nncc1-c1ccc(OC(F)(F)F)cc1` [Example 302, [3-chloro-5-(methylsulfonyl)-4′-[5-methyl-3-(trifluoromethyl)-1H-pyrazol-1-yl]-3′-(5-{4-[(trifluoromethyl)oxy]phenyl}-1H-1,2,3-triazol-1-yl)biphenyl-4-yl]methanol], the 50% effective concentration (EC50) was 227 nM and the Emax was determined as 93%.

Consider `Cc1cc(C(F)(F)F)nn1-c1ccc(-c2cccc(C(C)(C)C(N)=O)c2)cc1-n1nncc1-c1ccc(OC(F)(F)F)cc1` [Example 303, 2-methyl-2-{4′-[5-methyl-3-(trifluoromethyl)-1H-pyrazol-1-yl]-3′-(5-{4-[(trifluoromethyl)oxy]phenyl}-1H-1,2,3-triazol-1-yl)biphenyl-3-yl}propanamide], for which the EC50 was 825 nM and the Emax turned out to be 102%.

Regarding `Cc1cc(C(C)(F)F)nn1-c1ccc(-c2cccc(S(C)(=O)=O)c2)cc1-n1nncc1-c1ccc(OC(F)(F)F)cc1` [Example 304, 1-{4-[3-(1,1-difluoroethyl)-5-methyl-1H-pyrazol-1-yl]-3′-(methylsulfonyl)biphenyl-3-yl}-5-{4-[(trifluoromethyl)oxy]phenyl}-1H-1,2,3-triazole], the half-maximal effective concentration (EC50) is 2860 nM and the Emax is 26%.

In the case of `Cc1cc(C(C)(F)F)nn1-c1ccc(-c2cc(F)c(CO)c(S(C)(=O)=O)c2)cc1-n1nncc1-c1ccc(OC(F)(F)F)cc1` [Example 305, {4′-[3-(1,1-difluoroethyl)-5-methyl-1H-pyrazol-1-yl]-3-fluoro-5-(methylsulfonyl)-3′-(5-{4-[(trifluoromethyl)oxy]phenyl}-1H-1,2,3-triazol-1-yl)biphenyl-4-yl}methanol], the 50% effective concentration (EC50) was 2040 nM and the Emax is 45%.

As for `Cc1cc(C(C)(F)F)n(-c2ccc(-c3cccc(S(C)(=O)=O)c3)cc2-n2nncc2-c2ccc(OC(F)(F)F)cc2)n1` [Example 306, 1-{4-[5-(1,1-difluoroethyl)-3-methyl-1H-pyrazol-1-yl]-3′-(methylsulfonyl)biphenyl-3-yl}-5-{4-[(trifluoromethyl)oxy]phenyl}-1H-1,2,3-triazole], the EC50 is 203 nM and the Emax came out at 71%.
